Laboratory results from the supplement of paper PMC11208160.

assay: recombinant UMI read abundance after kanamycin selection (control-corrected) (log10(CPM+1)); higher = more efficient recombination; extreme values may be limits of the assay; sequences stand for … in AGTGCAGAGAAAATCGGCCAGTTTTCTCTGCCTGCAGTCCGCATGCCGTGGGACCCCTTGGGTTCTAACCTGTTGCCTAGATTTATGCAGCGGACTGCCTTTCTCCCAAAGTGATAAACCGG…AGGTTGGTTTCACT; site = the 11-nt donor
Procedure, shortened: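 Sequencing read counts were converted to CPM, averaged over two replicates and scaled by control-derived factors. Results are given as log10(CPM+1). The reads covered the donor–target junction of recombinant UMIs from a pooled Escherichia coli screen of donor and donor-binding-loop pairs for the IS621 bridge recombinase.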
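Also: IS621 bridge recombinase in Escherichia coli cells against a fixed T5 target plasmid.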

First: GACAAAACATGGACCGGTTTTCCCGGTAATCCGTATTTGGT (site GACAAAACTAC)
Second: GACAAAACATGGACCGGTTTTCCCGGTAATCCGTATTTGGT (site GACAAACCTAC)
The “recombinant UMI read abundance (log10)” value of the first is higher: 0.855 for the first, 0 for the second.

Going from “GACAAAACATGGACCGGTTTTCCCGGTAATCCGTATTTGGT (site GACAAAGCTAC)” to “GACAAAACATGGACCGGTTTTCCCGGTAATCCGTATTTGGT (site GACAAATCTAC)”, the “recombinant UMI read abundance (log10)” value falls from 0.517 to 0.

“GACAAACCATGGACCGGTTTTCCCGGTAATCCGTATTTGAT (site GACAAACCTAA)” and “GACAAACCATGGACCGGTTTTCCCGGTAATCCGTATTTGAT (site GACAAACCTAC)” are the same in “recombinant UMI read abundance (log10)” value: 0 for the first, 0 for the second.

“GACAAACCATGGACCGGTTTTCCCGGTAATCCGTATTTGAT (site GACAAACCTAG)” and “GACAAACCATGGACCGGTTTTCCCGGTAATCCGTATTTGAT (site GACAAACCTAT)” are the same in “recombinant UMI read abundance (log10)” value: 0 for the first, 0 for the second.

“GACAAACCATGGACCGGTTTTCCCGGTAATCCGTATTTGGT (site AACAAACCTAC)” and “GACAAACCATGGACCGGTTTTCCCGGTAATCCGTATTTGGT (site CACAAACCTAC)” are the same in “recombinant UMI read abundance (log10)” value: 0 for the first, 0 for the second.

“GACAAACCATGGACCGGTTTTCCCGGTAATCCGTATTTGGT (site GAAAAACCTAC)” and “GACAAACCATGGACCGGTTTTCCCGGTAATCCGTATTTGGT (site GACAAAACTAC)” are the same in “recombinant UMI read abundance (log10)” value: 0 for the first, 0 for the second.

“GACAAACCATGGACCGGTTTTCCCGGTAATCCGTATTTGGT (site GACAAACCTAA)” and “GACAAACCATGGACCGGTTTTCCCGGTAATCCGTATTTGGT (site GACAAACCTAC)” are the same in “recombinant UMI read abundance (log10)” value: 0 for the first, 0 for the second.

“GACAAACCATGGACCGGTTTTCCCGGTAATCCGTATTTGGT (site GACAAACCTAG)” and “GACAAACCATGGACCGGTTTTCCCGGTAATCCGTATTTGGT (site GACAAACCTAT)” are the same in “recombinant UMI read abundance (log10)” value: 0 for the first, 0 for the second.

“GACAAACCATGGACCGGTTTTCCCGGTAATCCGTATTTGGT (site GACAAACCTCC)” and “GACAAACCATGGACCGGTTTTCCCGGTAATCCGTATTTGGT (site GACAAACCTGC)” are within 0.2 log units of each other in “recombinant UMI read abundance (log10)” value: 0.0384 for the first, 0 for the second.

“GACAAACCATGGACCGGTTTTCCCGGTAATCCGTATTTGGT (site GACAAACCTTC)” and “GACAAACCATGGACCGGTTTTCCCGGTAATCCGTATTTGGT (site GACAAAGCTAC)” are the same in “recombinant UMI read abundance (log10)” value: 0 for the first, 0 for the second.

“GACAAACCATGGACCGGTTTTCCCGGTAATCCGTATTTGGT (site GACAAATCTAC)” and “GACAAACCATGGACCGGTTTTCCCGGTAATCCGTATTTGGT (site GACAACCCTAC)” are the same in “recombinant UMI read abundance (log10)” value: 0 for the first, 0 for the second.

“GACAAACCATGGACCGGTTTTCCCGGTAATCCGTATTTGGT (site GACAAGCCTAC)” and “GACAAACCATGGACCGGTTTTCCCGGTAATCCGTATTTGGT (site GACAATCCTAC)” are within 0.2 log units of each other in “recombinant UMI read abundance (log10)” value: 0.00399 for the first, 0 for the second.

“GACAAACCATGGACCGGTTTTCCCGGTAATCCGTATTTGGT (site GACACACCTAC)” and “GACAAACCATGGACCGGTTTTCCCGGTAATCCGTATTTGGT (site GACAGACCTAC)” are the same in “recombinant UMI read abundance (log10)” value: 0 for the first, 0 for the second.

“GACAAACCATGGACCGGTTTTCCCGGTAATCCGTATTTGGT (site GACATACCTAC)” and “GACAAACCATGGACCGGTTTTCCCGGTAATCCGTATTTGGT (site GACCAACCTAC)” are within 0.2 log units of each other in “recombinant UMI read abundance (log10)” value: 0 for the first, 0.00428 for the second.

“GACAAACCATGGACCGGTTTTCCCGGTAATCCGTATTTGGT (site GACGAACCTAC)” and “GACAAACCATGGACCGGTTTTCCCGGTAATCCGTATTTGGT (site GACTAACCTAC)” are the same in “recombinant UMI read abundance (log10)” value: 0 for the first, 0 for the second.

“GACAAACCATGGACCGGTTTTCCCGGTAATCCGTATTTGGT (site GAGAAACCTAC)” and “GACAAACCATGGACCGGTTTTCCCGGTAATCCGTATTTGGT (site GATAAACCTAC)” are the same in “recombinant UMI read abundance (log10)” value: 0 for the first, 0 for the second.

“GACAAACCATGGACCGGTTTTCCCGGTAATCCGTATTTGGT (site GCCAAACCTAC)” and “GACAAACCATGGACCGGTTTTCCCGGTAATCCGTATTTGGT (site GGCAAACCTAC)” are the same in “recombinant UMI read abundance (log10)” value: 0 for the first, 0 for the second.

“GACAAACCATGGACCGGTTTTCCCGGTAATCCGTATTTGGT (site GTCAAACCTAC)” and “GACAAACCATGGACCGGTTTTCCCGGTAATCCGTATTTGGT (site TACAAACCTAC)” are the same in “recombinant UMI read abundance (log10)” value: 0 for the first, 0 for the second.

“GACAACCCATGGACCGGTTTTCCCGGTAATCCGTATTTGCT (site GACAACCCTAG)” and “GACAACCCATGGACCGGTTTTCCCGGTAATCCGTATTTGGT (site GACAAACCTAC)” are within 0.2 log units of each other in “recombinant UMI read abundance (log10)” value: 0.00684 for the first, 0 for the second.

“GACAACCCATGGACCGGTTTTCCCGGTAATCCGTATTTGGT (site GACAACCCTAC)” and “GACAACCCATGGACCGGTTTTCCCGGTAATCCGTATTTGGT (site GACAAGCCTAC)” are within 0.2 log units of each other in “recombinant UMI read abundance (log10)” value: 0 for the first, 0.00882 for the second.

“GACAACCCATGGACCGGTTTTCCCGGTAATCCGTATTTGGT (site GACAATCCTAC)” and “GACAAGCCATGGACCGGTTTTCCCGGTAATCCGTATTTGGT (site GACAAACCTAC)” are the same in “recombinant UMI read abundance (log10)” value: 0 for the first, 0 for the second.

“GACAAGCCATGGACCGGTTTTCCCGGTAATCCGTATTTGGT (site GACAACCCTAC)” and “GACAAGCCATGGACCGGTTTTCCCGGTAATCCGTATTTGGT (site GACAAGCCTAC)” are within 0.2 log units of each other in “recombinant UMI read abundance (log10)” value: 0.00727 for the first, 0 for the second.

“GACAAGCCATGGACCGGTTTTCCCGGTAATCCGTATTTGGT (site GACAATCCTAC)” and “GACAATTCATGGACCGGTTTTCCCGGTAATCCGTATTTGAC (site GACAATTCTGT)” are the same in “recombinant UMI read abundance (log10)” value: 0 for the first, 0 for the second.

Going from “GACACATCATGGACCGGTTTTCCCGGTAATCCGTATTTGGT (site GACACATCTAC)” to “GACATACCATGGACCGGTTTTCCCGGTAATCCGTATTTGGT (site GACAAACCTAC)”, the “recombinant UMI read abundance (log10)” value falls from 2.25 to 0.

“GACATACCATGGACCGGTTTTCCCGGTAATCCGTATTTGGT (site GACACACCTAC)” and “GACATACCATGGACCGGTTTTCCCGGTAATCCGTATTTGGT (site GACAGACCTAC)” are within 0.2 log units of each other in “recombinant UMI read abundance (log10)” value: 0.01 for the first, 0 for the second.

“GACATACCATGGACCGGTTTTCCCGGTAATCCGTATTTGGT (site GACATACCTAC)” and “GACCCGCCATGGACCGGTTTTCCCGGTAATCCGTATTTGAG (site GACCCGCCTCT)” are within 0.2 log units of each other in “recombinant UMI read abundance (log10)” value: 0.0102 for the first, 0.0157 for the second.

First: GACCCGCCATGGACCGGTTTTCCCGGTAATCCGTATTTGTG (site GACCCGCCTCA)
Second: GACCCGTCATGGACCGGTTTTCCCGGTAATCCGTATTTGTG (site GACCCGTCTCA)
The “recombinant UMI read abundance (log10)” value of the first is lower: 0.0171 for the first, 1.63 for the second.

First: GACCGAGCATGGACCGGTTTTCCCGGTAATCCGTATTTGTA (site GACCGAGCTTA)
Second: GACCTAGCATGGACCGGTTTTCCCGGTAATCCGTATTTGAA (site GACCTAGCTTT)
The “recombinant UMI read abundance (log10)” value of the first is higher: 1.19 for the first, 0.349 for the second.

First: GACCTCACATGGACCGGTTTTCCCGGTAATCCGTATTTGAT (site GAACTCACTAT)
Second: GACCTCACATGGACCGGTTTTCCCGGTAATCCGTATTTGAT (site GACCTCACTAT)
The “recombinant UMI read abundance (log10)” value of the first is lower: 0.0127 for the first, 0.626 for the second.

“GACCTCACATGGACCGGTTTTCCCGGTAATCCGTATTTGAT (site GAGCTCACTAT)” and “GACCTCACATGGACCGGTTTTCCCGGTAATCCGTATTTGAT (site GATCTCACTAT)” are within 0.2 log units of each other in “recombinant UMI read abundance (log10)” value: 0 for the first, 0.00913 for the second.

First: GACCTCCCATGGACCGGTTTTCCCGGTAATCCGTATTTGTG (site GACCTCCCTCA)
Second: GACGACGCATGGACCGGTTTTCCCGGTAATCCGTATTTGGA (site GACGACGCTTC)
The “recombinant UMI read abundance (log10)” value of the first is lower: 0.00533 for the first, 2.48 for the second.

Compared with “GACGTAACATGGACCGGTTTTCCCGGTAATCCGTATTTGTA (site GACGTAACTTA)”, “GACTAGTCATGGACCGGTTTTCCCGGTAATCCGTATTTGTG (site GACTAGTCTCA)” is lower in “recombinant UMI read abundance (log10)” value: 2.19 for the first, 1.64 for the second.

First: GACTCTTCATGGACCGGTTTTCCCGGTAATCCGTATTTGGC (site GACTCTTCTGC)
Second: GACTGGACATGGACCGGTTTTCCCGGTAATCCGTATTTGGT (site GACTGGACTAC)
The “recombinant UMI read abundance (log10)” value of the first is higher: 1.04 for the first, 0.826 for the second.

Going from “GACTTTGCATGGACCGGTTTTCCCGGTAATCCGTATTTGCA (site GACTTTGCTTG)” to “GAGATCACATGGACCGGTTTTCCCGGTAATCCGTATTTGAT (site GAGATCACTAT)”, the “recombinant UMI read abundance (log10)” value rises from 0 to 2.13.

“GAGATCACATGGACCGGTTTTCCCGGTAATCCGTATTTGAT (site GAGCTCACTAT)” and “GAGATCACATGGACCGGTTTTCCCGGTAATCCGTATTTGAT (site GAGGTCACTAT)” are within 0.2 log units of each other in “recombinant UMI read abundance (log10)” value: 0.00919 for the first, 0.0122 for the second.

Going from “GAGATCACATGGACCGGTTTTCCCGGTAATCCGTATTTGAT (site GAGTTCACTAT)” to “GAGCAAGCATGGACCGGTTTTCCCGGTAATCCGTATTTGCA (site GAGCAAGCTTG)”, the “recombinant UMI read abundance (log10)” value rises from 0.113 to 2.68.

Compared with “GAGCAGACATGGACCGGTTTTCCCGGTAATCCGTATTTGTG (site GAGCAGACTCA)”, “GAGCCCACATGGACCGGTTTTCCCGGTAATCCGTATTTGAT (site GAGCACACTAT)” is lower in “recombinant UMI read abundance (log10)” value: 1.25 for the first, 0 for the second.

For “GAGCCCACATGGACCGGTTTTCCCGGTAATCCGTATTTGAT (site GAGCCCACTAT)”, the “recombinant UMI read abundance (log10)” value was 1.66.
